US20250230193A1, “CYCLIC COMPOUND HAVING SELECTIVE KRAS INHIBITORY EFFECT ON HRAS AND NRAS” (CHUGAI SEIYAKU KABUSHIKI KAISHA, priority 2022, published 2025)

Assays:
[1] = target: GDP-bound NRAS wild-type protein (Homo sapiens, UniProt P01111); assay: Binding to NRAS by surface plasmon resonance (SPR), Single Cycle Kinetics; conditions: KD ratio NRAS/KRAS, class symbols
[2] = target: GDP-bound HRAS wild-type protein (Homo sapiens, UniProt P01112); assay: Binding to HRAS by surface plasmon resonance (SPR), Single Cycle Kinetics; conditions: KD ratio HRAS/KRAS, class symbols
Sequence of GDP-bound HRAS wild-type protein (P01112 whole entry): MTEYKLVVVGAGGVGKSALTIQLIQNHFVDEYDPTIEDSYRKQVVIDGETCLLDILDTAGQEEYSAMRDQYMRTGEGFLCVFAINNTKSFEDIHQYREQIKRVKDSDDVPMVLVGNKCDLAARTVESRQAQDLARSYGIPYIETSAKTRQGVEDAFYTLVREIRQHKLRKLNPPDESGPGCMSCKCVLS

Sequence of GDP-bound NRAS wild-type protein (P01111 whole entry): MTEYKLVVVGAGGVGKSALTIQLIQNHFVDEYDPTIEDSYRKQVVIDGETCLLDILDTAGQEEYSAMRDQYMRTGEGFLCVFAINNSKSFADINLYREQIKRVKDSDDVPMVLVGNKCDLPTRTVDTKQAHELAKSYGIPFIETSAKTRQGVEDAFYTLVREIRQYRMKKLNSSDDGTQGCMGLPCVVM

Structure (SMILES)	NRAS/KRAS (ratio of KD value with respect to GDP-bound NRAS wild-type protein to KD value with respect to KRAS) [1]	HRAS/KRAS (ratio of KD value with respect to GDP-bound HRAS wild-type protein to KD value with respect to KRAS) [2]
CCO[C@@H]1C[C@H]2C(=O)NC3(CC(C)(C)C3)C(=O)N(C)[C@@H](C3CCCC3)C(=O)N(C)[C@H](C(=O)N(C)CC)CC(=O)N(C)[C@@H](CC(C)C)C(=O)N[C@@H]([C@@H](C)CC)C(=O)N(C)CC(=O)N(C)[C@H]3C/C=C\CCN(C3=O)[C@@H](Cc3ccc(C(F)F)cc3)C(=O)N(C)CC(=O)N[C@@H](CCc3ccc(C(F)(F)F)c(Cl)c3)C(=O)N2C1 [PP2829]	A (a compound having 10 or more and less than 20 is denoted as A)	A (a compound having 10 or more and less than 20 is denoted as A)
CCCOC[C@H]1C(=O)N[C@@H]([C@@H](C)CC)C(=O)N(C)CC(=O)N(C)[C@H]2C/C=C\CCN(C2=O)[C@@H](Cc2ccc(C(F)(F)F)cc2)C(=O)N(C)CC(=O)N[C@@H](CCc2ccc(Cl)c(Cl)c2)C(=O)N2C[C@H](OCC)C[C@H]2C(=O)NC2(CCC2)C(=O)N(C)[C@@H](C2CCCC2)C(=O)N(C)[C@H](C(=O)N(C)CCC)CC(=O)N1C [PP2830]	A (a compound having 10 or more and less than 20 is denoted as A)	A (a compound having 10 or more and less than 20 is denoted as A)
CCCOC[C@H]1C(=O)N[C@@H]([C@@H](C)CC)C(=O)N(C)CC(=O)N(C)[C@H]2C/C=C\CCN(C2=O)[C@@H](Cc2ccc(C(F)(F)F)cc2)C(=O)N(C)CC(=O)N[C@@H](CCc2ccc(C(F)(F)F)c(Cl)c2)C(=O)N2C[C@H](OCC)C[C@H]2C(=O)NC2(CCC2)C(=O)N(C)[C@@H](C2CCCC2)C(=O)N(C)[C@H](C(=O)N(C)CCC)CC(=O)N1C [PP2831]	A (a compound having 10 or more and less than 20 is denoted as A)	A (a compound having 10 or more and less than 20 is denoted as A)
CCO[C@@H]1C[C@H]2C(=O)NC3(CC(C)(C)C3)C(=O)N(C)[C@@H](C3CCCC3)C(=O)N(C)[C@H](C(=O)N(C)C)CC(=O)N(C)[C@@H](CC(F)(F)F)C(=O)N[C@@H]([C@@H](C)CC)C(=O)N(C)CC(=O)N(C)[C@H]3C/C=C\CCN(C3=O)[C@@H](Cc3ccc(C(F)(F)F)cc3)C(=O)N(C)CC(=O)N[C@@H](CCc3ccc(Cl)c(Cl)c3)C(=O)N2C1 [PP2832]	A (a compound having 10 or more and less than 20 is denoted as A)	A (a compound having 10 or more and less than 20 is denoted as A)
CCO[C@@H]1C[C@H]2C(=O)NC3(CC(C)(C)C3)C(=O)N(C)[C@@H](C3CCCC3)C(=O)N(C)[C@H](C(=O)N(C)C)CC(=O)N(C)[C@@H](CC(F)(F)F)C(=O)N[C@@H]([C@@H](C)CC)C(=O)N(C)CC(=O)N(C)[C@H]3C/C=C\CCN(C3=O)[C@@H](Cc3ccc(C(F)(F)F)cc3)C(=O)N(C)CC(=O)N[C@@H](CCc3ccc(C(F)(F)F)c(Cl)c3)C(=O)N2C1 [PP2833]	A (a compound having 10 or more and less than 20 is denoted as A)	A (a compound having 10 or more and less than 20 is denoted as A)
CCO[C@@H]1C[C@H]2C(=O)NC3(CC(C)(C)C3)C(=O)N(C)[C@@H](C3CCCC3)C(=O)N(C)[C@H](C(=O)N(C)CC)CC(=O)N(C)[C@@H](COC)C(=O)N[C@@H]([C@@H](C)CC)C(=O)N(C)CC(=O)N(C)[C@H]3C/C=C\CCN(C3=O)[C@@H](Cc3ccc(C(F)(F)F)cc3)C(=O)N(C)CC(=O)N[C@@H](CCc3ccc(Cl)c(Cl)c3)C(=O)N2C1 [PP2835]	A (a compound having 10 or more and less than 20 is denoted as A)	A (a compound having 10 or more and less than 20 is denoted as A)
CCO[C@@H]1C[C@H]2C(=O)NC3(CC(C)(C)C3)C(=O)N(C)[C@@H](C3CCCC3)C(=O)N(C)[C@H](C(=O)N(C)CC)CC(=O)N(C)[C@@H](COC)C(=O)N[C@@H]([C@@H](C)CC)C(=O)N(C)CC(=O)N(C)[C@H]3C/C=C\CCN(C3=O)[C@@H](Cc3ccc(C(F)(F)F)cc3)C(=O)N(C)CC(=O)N[C@@H](CCc3ccc(C(F)(F)F)c(Cl)c3)C(=O)N2C1 [PP2836]	A (a compound having 10 or more and less than 20 is denoted as A)	A (a compound having 10 or more and less than 20 is denoted as A)
CCO[C@@H]1C[C@H]2C(=O)NC3(CCCC3)C(=O)N(C)[C@@H](C3CCCC3)C(=O)N(C)[C@H](C(=O)N(C)C)CC(=O)N(C)[C@@H](CC(C)C)C(=O)N[C@@H]([C@@H](C)CC)C(=O)N(C)CC(=O)N(C)[C@H]3C/C=C\CCN(C3=O)[C@@H](Cc3ccc(C(F)(F)F)cc3)C(=O)N(C)CC(=O)N[C@@H](CCc3ccc(Cl)c(Cl)c3)C(=O)N2C1 [PP2837]	AA (a compound having 20 or more is denoted as AA)	A (a compound having 10 or more and less than 20 is denoted as A)
CCO[C@@H]1C[C@H]2C(=O)NC3(CCCC3)C(=O)N(C)[C@@H](C3CCCC3)C(=O)N(C)[C@H](C(=O)N(C)C)CC(=O)N(C)[C@@H](CC(C)C)C(=O)N[C@@H]([C@@H](C)CC)C(=O)N(C)CC(=O)N(C)[C@H]3C/C=C\CCN(C3=O)[C@@H](Cc3ccc(C(F)(F)F)cc3)C(=O)N(C)CC(=O)N[C@@H](CCc3ccc(C(F)(F)F)c(Cl)c3)C(=O)N2C1 [PP2838]	AA (a compound having 20 or more is denoted as AA)	A (a compound having 10 or more and less than 20 is denoted as A)
CCCC[C@H]1C(=O)N[C@@H]([C@@H](C)CC)C(=O)N(C)CC(=O)N(C)[C@H]2C/C=C\CCN(C2=O)[C@@H](Cc2ccc(C(F)(F)F)cc2)C(=O)N(C)CC(=O)N[C@@H](CCc2ccc(C(F)(F)F)c(OC)c2)C(=O)N2C[C@H](OCC)C[C@H]2C(=O)NC2(CCC2)C(=O)N(C)[C@@H](C2CCCC2)C(=O)N(C)[C@H](C(=O)N(C)CC)CC(=O)N1C [PP2840]	A (a compound having 10 or more and less than 20 is denoted as A)	A (a compound having 10 or more and less than 20 is denoted as A)
CCCC[C@H]1C(=O)N[C@@H]([C@@H](C)CC)C(=O)N(C)CC(=O)N(C)[C@H]2C/C=C\CCN(C2=O)[C@@H](Cc2ccc(C(F)(F)F)cc2)C(=O)N(C)CC(=O)N[C@@H](CCc2ccc(C(F)(F)F)c(Cl)c2)C(=O)N2C[C@H](OCC)C[C@H]2C(=O)NC2(CCC2)C(=O)N(C)[C@@H](C2CCCC2)C(=O)N(C)[C@H](C(=O)N(C)CC)CC(=O)N1C [PP2841]	A (a compound having 10 or more and less than 20 is denoted as A)	A (a compound having 10 or more and less than 20 is denoted as A)
CCO[C@@H]1C[C@H]2C(=O)NC3(CCC3)C(=O)N(C)[C@@H](C3CCCC3)C(=O)N(C)[C@H](C(=O)N(C)C)CC(=O)N(C)[C@@H](CC3CCCC3)C(=O)N[C@@H]([C@@H](C)CC)C(=O)N(C)CC(=O)N(C)[C@H]3C/C=C\CCN(C3=O)[C@@H](Cc3ccc(C(F)(F)F)cc3)C(=O)N(C)CC(=O)N[C@@H](CCc3ccc(C(F)(F)F)c(Cl)c3)C(=O)N2C1 [PP2842]	A (a compound having 10 or more and less than 20 is denoted as A)	B (a compound having 3 or more and less than 10 is denoted as B)
C#CC[C@H]1C(=O)N[C@@H]([C@@H](C)CC)C(=O)N(C)CC(=O)N(C)[C@H]2C/C=C\CCN(C2=O)[C@@H](Cc2ccc(C(F)(F)F)cc2)C(=O)N(C)CC(=O)N[C@@H](CCc2ccc(Cl)c(Cl)c2)C(=O)N2C[C@H](OCC)C[C@H]2C(=O)NC2(CC(C)(C)C2)C(=O)N(C)[C@@H](C2CCCC2)C(=O)N(C)[C@H](C(=O)N(C)CC)CC(=O)N1C [PP2843]	A (a compound having 10 or more and less than 20 is denoted as A)	A (a compound having 10 or more and less than 20 is denoted as A)
C#CC[C@H]1C(=O)N[C@@H]([C@@H](C)CC)C(=O)N(C)CC(=O)N(C)[C@H]2C/C=C\CCN(C2=O)[C@@H](Cc2ccc(C(F)(F)F)cc2)C(=O)N(C)CC(=O)N[C@@H](CCc2ccc(C(F)(F)F)c(Cl)c2)C(=O)N2C[C@H](OCC)C[C@H]2C(=O)NC2(CC(C)(C)C2)C(=O)N(C)[C@@H](C2CCCC2)C(=O)N(C)[C@H](C(=O)N(C)CC)CC(=O)N1C [PP2844]	A (a compound having 10 or more and less than 20 is denoted as A)	A (a compound having 10 or more and less than 20 is denoted as A)
CCO[C@@H]1C[C@H]2C(=O)NC3(CCC3)C(=O)N(C)[C@@H](C3CCCC3)C(=O)N(C)[C@H](C(=O)N(C)CC)CC(=O)N(C)[C@@H](CC(C)C)C(=O)N[C@@H]([C@@H](C)CC)C(=O)N(C)CC(=O)N(C)[C@H]3C/C=C\CCN(C3=O)[C@@H](Cc3ccc(C(F)(F)F)cc3)C(=O)N(C)CC(=O)N[C@@H](CCc3ccc(Cl)c(Cl)c3)C(=O)N2C1 [PP2845]	AA (a compound having 20 or more is denoted as AA)	A (a compound having 10 or more and less than 20 is denoted as A)
